Test results: patent publication US11000033B2, “Ketone or oxime compound, and herbicide” (NISSAN CHEMICAL CORPORATION, priority 2014, dated 2021)

melting point [°C]	SMILES
170 to 178	CON=C(C)CC1CC(O)=C(c2c(C)cc(C3CC3)cc2C)C1=O (centres unmarked) [6-050]
141 to 143	CON=C(C)CC1CC(O)=C(c2c(C)cc(OC)cc2C)C1=O (centres unmarked) [6-055]
150 to 153	CON=C(C)CC1CC(O)=C(c2c(C)cc(Br)cc2OC)C1=O (centres unmarked) [6-076, 2-(4-bromo-2-methoxy-6-methylphenyl)-3-hydroxy-5-{2-(methoxyimino)propyl}cyclopent-2-enone]
157 to 159	CON=C(C)CC1CC(O)=C(c2c(F)cc(Br)cc2OC)C1=O (centres unmarked) [6-096]
175 to 177	CON=C(C)CC1CC(O)=C(c2c(C)cc(-c3ccccc3)cc2OC)C1=O (centres unmarked) [6-099]
171 to 175	CON=C(C)CC1CC(O)=C(c2c(OC)cc(C)cc2OC)C1=O (centres unmarked) [6-103]
175 to 177	CON=C(C)CC1CC(O)=C(c2c(F)cc(-c3ccccc3)cc2OC)C1=O (centres unmarked) [6-107]
167 to 170	CON=C(C)CC1CC(O)=C(c2c(C)cccc2C)C1=O (centres unmarked) [6-112]
